Patent US20250129048A1, “MELANOCORTIN 4 RECEPTOR ANTAGONISTS AND USES THEREOF” (Pfizer Inc., priority 2021, published 2025)

Assays:
[1] = biological target: hMC4R (Homo sapiens (Human), UniProt P32245); test: In vitro binding affinity assay using hMC4R (radioligand competition binding, CHO cell membranes); conditions: competition with [125I]-(Nle4, D-Phe7)-α-MSH 0.5 nM; Ki from IC50 by Cheng-Prusoff; read-out: Ki (nM) geometric mean
Protocol: The binding affinity of test compounds at the α-melanocyte-stimulating hormone receptor (hMC4R) was assessed using a radioligand competition binding assay. Recombinant Chinese hamster ovaries (CHO) cells stably expressing hMC4R (PerkinElmer #ES-191-C) were used for competitive binding. hMC4R membranes were grown in Dulbecco's Modified Essential Medium and Ham's F-12 Medium (DMEM/F12), 10% heat inactivated fetal bovine serum (FBS), 0.4 mg/mL Geneticin and 2 mM L-glutamine. Cell membranes were bulked and frozen until the assay was performed.
Compounds were solubilized in 100% dimethyl sulfoxide (DMSO) to a concentration of 30 mM. A 10-point intermediate dilution series using half log dilutions was created in 100% DMSO with a top concentration of 0.03 mM. The serially diluted compounds were spotted as 1 μL/well, in 96-well Costar 3363 plates. The final compound range in the assay was 300 nM to 0.01 nM with a final DMSO concentration of 1%. Control wells, containing 1 μL of 2 mM ([…]) alpha-melanocyte stimulating hormone (α-MSH-Tocris #2584) was added to the non-specific binding wells and 1 μL 100% DMSO for the total binding control wells. This was followed by the addition of 80 μL of assay buffer [25 mM HEPES, 5 mM MgCl2, 2.5 mM CaCl2, 150 mM NaCl, Complete EDTA-free Protease Inhibitor Tablet (Thermo Scientific #11873580001) and 0.25% BSA]. […] The exact concentration of radioligand used for each experiment was determined by liquid scintillation counting and adjusted if necessary.
Frozen hMC4R cell membranes were thawed and Dounce homogenized. Homogenates were resuspended in assay buffer to a concentration of 2 μg per well. […] The plates were incubated for 2 hours at room temperature. Assay samples were then rapidly filtered through Unifilter-96 GF/B PEI coated filter plates using a filter plate harvester (PerkinElmer) and rinsed with ice-cold wash buffer [25 mM (4-(2-hydroxyethyl)-1-piperazineethanesulfonic acid (HEPES), 1 mM MgCl2, 2.5 mM CaCl2, and 500 mM NaCl]. Filter plates were dried overnight at room temperature. Plates were then bottom-sealed prior to the addition of 50 μL/well Ultima Gold XR scintillation fluid (PerkinElmer 6013111). Plates were then top-sealed, incubated for 60 minutes at room temperature and then the amount of radioactivity present was determined by liquid scintillation counting on a Microbeta Trilux (PerkinElmer #2450-0060).
The raw data (expressed as counts per minute) were analyzed using ActivityBase (IDBS Data Management Software). […] Equilibrium dissociation constant for inhibitor of ligand and receptor interaction (Ki) values were then calculated from the IC50 values using the Cheng-Prusoff equation: Ki=IC50/(1+([L]/Kd)), where [L] is the concentration of the radioligand used in the experiment and Kd is the affinity of the radioligand (determined in separate saturation experiments).

[2] = biological target: human Melanocortin-4 receptor (MC4R) (Homo sapiens (Human), UniProt P32245); test: Functional in vitro MC4R antagonist potency assay (intracellular cAMP, HTRF, CHO cells); assay type: cell-based; conditions: cAMP after EC80 agonist stimulation (200 nM αMSH); Kb from IC50 by Leff-Dougall equation; read-out: Kb (nM) Antagonist geometric mean
Protocol: The functional in vitro antagonist potency for test compounds was determined by monitoring intracellular cyclic adenosine monophosphate (cAMP) levels in Chinese hamster ovary (CHO—) cells stably expressing the human Melanocortin-4 receptor (MC4R). Following agonist activation, human MC4R associates with the G-protein complex causing the Ga subunit to exchange bound GDP for GTP, followed by dissociation of the Gα-GTP complex. The activated Ga subunit can couple to downstream effectors to regulate the levels of second messengers or cAMP within the cell. Thereby, determination of intracellular cAMP levels allows for pharmacological characterization. Intracellular cAMP levels are quantitated using a homogenous assay utilizing the Homogeneous Time-Resolved Fluorescence (HTRF) technology from CisBio. The method is a competitive immunoassay between native cAMP produced by cells and the cAMP labelled with the acceptor dye, d2. The two entities then compete for binding to a monoclonal anti-cAMP antibody labeled with cryptate. The specific signal is inversely proportional to the concentration of cAMP in the cells.
Test compounds were solubilized to 30 mM in 100% dimethyl sulfoxide (DMSO) and stored. An 11-point dilution series using 1 in 3 162-fold serial dilutions was created in 100% DMSO with a top concentration of 800 μM. The serially diluted compound was spotted into a 384-well plate (Greiner, Cat No. 781280) at 40 nL/well with duplicate points at each concentration, and then diluted 1 in 1000 with 40 μL assay buffer containing HBSS, 20 mM HEPES (Invitrogen), 0.1% BSA, and 250 μM IBMX (Sigma Aldrich) to create an intermediate plate at 2× final assay concentration (FAC). The final compound concentration range in the assay was 400 nM to […], with a final DMSO concentration of 0.1%.
In-house generated CHO cells stably expressing the Gs-coupled human MC4R receptor were plated in 384-well assay plates (Corning, Cat No. 3570) in 50 μL/well of Ham's F-12 containing 10% heat inactivated FBS, 1× penicillin/streptomycin, 1 mM Glutamax (Invitrogen) at a density of 2,500 cells per well and incubated at 37° C. (95% O2: 5% CO2) overnight, with micro-clime lids (Labcyte, Cat No. LLS-0310). On day of assay, media was removed from the assay plate through gentle flicking and blotting plate on a paper towel and replaced with 5 μL of 2× antagonist compound in assay buffer (HBSS, 20 mM HEPES, 0.1% BSA, 250 μM IBMX) and 0.1% DMSO. Cells were incubated with compound for 30 minutes at 37° C. (95% O2: 5% CO2) before addition of 5 μL EC80 agonist stimulation (200 nM α-melanocyte stimulating hormone, αMSH, Bachem) and another 30-minute incubation at 37° C. (95% O2: 5% CO2). Intracellular cAMP levels were quantified as per Cisbio's protocol (5 μL of D2 and then 5 μL Cryptate, incubated for 1-2 hours at room temperature). Samples were measured on an Envision plate reader (PerkinElmer Life and Analytical Sciences; excitation, 320 nm; emission, 665 nm/620 nm).
Data were analyzed using the ratio of fluorescence intensity at 620 and 665 nm for each well, extrapolated from the cAMP standard curve to express data as nM cAMP for each well. Data expressed as nM cAMP were then normalized to control wells using Activity Base (IDBS). Zero percent effect (ZPE) was defined as nM of cAMP generated from EC80 agonist stimulation (200 nM αMSH). In the absence of an antagonist control compound, one hundred percent effect (HPE) was defined as nM of cAMP generated from assay buffer/vehicle only.

Sequence of human Melanocortin-4 receptor (MC4R) (P32245 whole entry): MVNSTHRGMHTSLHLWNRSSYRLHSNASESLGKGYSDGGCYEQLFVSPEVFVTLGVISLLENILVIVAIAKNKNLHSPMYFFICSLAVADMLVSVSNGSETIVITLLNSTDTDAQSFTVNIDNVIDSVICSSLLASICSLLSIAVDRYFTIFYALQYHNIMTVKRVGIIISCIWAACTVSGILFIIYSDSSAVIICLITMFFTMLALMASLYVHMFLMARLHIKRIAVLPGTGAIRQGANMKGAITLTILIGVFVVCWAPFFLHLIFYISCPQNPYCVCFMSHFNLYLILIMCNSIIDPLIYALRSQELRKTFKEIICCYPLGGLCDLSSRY
Sequence of hMC4R (P32245 whole entry): as above

| Compound | Ki [1] [nM] | Kb [2] [nM] |
| --- | --- | --- |
| COc1cc([C@@H](C)C(=O)N2CC[C@H](Nc3ccc(-c4ncccn4)c(C)n3)C2)cc(OC(F)F)n1 (single isomer, unassigned) [Example 30B] | 0.93 | 6.8 |
| COc1cc([C@@H](C)C(=O)N2CC[C@H](Nc3ccc(-c4nc(C(F)F)n(C)n4)c(C)n3)C2)ccn1 (single isomer, unassigned) [Example 33B] | 1.1 | 3.3 |
| COc1cc([C@@H](C)C(=O)N2CC[C@H](Nc3ccc(-c4nc(C(C)(F)F)n(C)n4)c(C)n3)C2)c(Cl)cn1 (single isomer, unassigned) [Example 37B] | 0.53 | 4.1 |
| COc1cc([C@@H](C)C(=O)N2CC[C@H](Nc3ccc(-c4cn(C)c(C(F)F)n4)c(C)n3)C2)c(F)cn1 (single isomer, unassigned) [Example 38B] | 0.31 | 3.2 |
| COc1cc(OC(F)F)cc([C@@H](C)C(=O)N2CC[C@H](Nc3ccc(-c4nc(C(C)(F)F)n(C)n4)c(C)n3)C2)c1 (single isomer, unassigned) [Example 40B] | 0.29 | 7.2 |
| COc1cc([C@@H](C)C(=O)N2CC[C@H](Nc3ccc(-c4nc(C(F)F)n(C)n4)c(C)n3)C2)nc(C)n1 (single isomer, unassigned) [Example 41B] | 2 | 3.6 |
| COc1cc(OC(F)F)cc([C@@H](C)C(=O)N2CC[C@H](Nc3ccc(-c4ncccn4)c(C)n3)C2)c1 (single isomer, unassigned) [Example 44A] | > 220 | > 97 |
| COc1cc(OC(F)F)cc([C@@H](C)C(=O)N2CC[C@H](Nc3ccc(-c4ncccn4)c(C)n3)C2)c1 (single isomer, unassigned) [Example 44B] | 0.77 | 4.1 |
| COc1cc([C@@H](C)C(=O)N2CC[C@H](Nc3ccc(-c4nnn(C)n4)c(C)n3)C2)c(Cl)cn1 [Example 1, (2R)-2-(5-chloro-2-methoxypyridin-4-yl)-1-[(3S)-3-{[6-methyl-5-(2-methyl-2H-tetrazol-5-yl)pyridin-2-yl]amino}pyrrolidin-1-yl]propan-1-one] | 0.88 | 5.1 |
| COc1cc([C@@H](C)C(=O)N2CC[C@H](Nc3ccc(-c4nc(C(F)(F)F)n(C)n4)c(C)n3)C2)c(F)cn1 [Example 2, (2R)-2-(5-fluoro-2-methoxypyridin-4-yl)-1-[(3S)-3-({6-methyl-5-[1-methyl-5-(trifluoromethyl)-1H-1,2,4-triazol-3-yl]pyridin-2-yl}amino)pyrrolidin-1-yl]propan-1-one] | 1.2 | 7.2 |
| Cc1nc(N[C@H]2CCN(C(=O)Cc3ccc(F)cc3)C2(C)C)ccc1-c1cn(C)cn1 [Example 3B, 1-[(3S)-2,2-dimethyl-3-{[6-methyl-5-(1-methyl-1H-imidazol-4-yl)pyridin-2-yl]amino}pyrrolidin-1-yl]-2-(4-fluorophenyl)ethan-1-one] | 4.2 | 33 |
| COc1cc([C@@H](C)C(=O)N2CC[C@H](Nc3ccc(-c4nc(C(C)(F)F)n(C)n4)c(C)n3)C2)c(F)cn1 [Example 4, (2R)-1-[(3S)-3-({5-[5-(1,1-difluoroethyl)-1-methyl-1H-1,2,4-triazol-3-yl]-6-methylpyridin-2-yl}amino)pyrrolidin-1-yl]-2-(5-fluoro-2-methoxypyridin-4-yl)propan-1-one] | 1 | 9.6 |
| COc1cc([C@@H](C)C(=O)N2CC[C@H](Nc3ccc(-c4nnn(C)n4)c(C)n3)C2)c(F)cn1 [Example 5, (2R)-2-(5-fluoro-2-methoxypyridin-4-yl)-1-[(3S)-3-{[6-methyl-5-(2-methyl-2H-tetrazol-5-yl)pyridin-2-yl]amino}pyrrolidin-1-yl]propan-1-one] | 2.6 | 17 |
| COc1cc([C@@H](C)C(=O)N2CC[C@H](Nc3ccc(-c4ncccn4)c(C)n3)C2)c(Cl)cn1 [Example 6, (2R)-2-(5-chloro-2-methoxypyridin-4-yl)-1-[(3S)-3-{[6-methyl-5-(pyrimidin-2-yl)pyridin-2-yl]amino}pyrrolidin-1-yl]propan-1-one] | 1.1 | 2.2 |
| COc1cc([C@@H](C)C(=O)N2CC[C@H](Nc3ccc(-c4nc(C(F)F)n(C5CC5)n4)c(C)n3)C2)c(F)cn1 [Example 8, (2R)-1-[(3S)-3-({5-[1-cyclopropyl-5-(difluoromethyl)-1H-1,2,4-triazol-3-yl]-6-methylpyridin-2-yl}amino)pyrrolidin-1-yl]-2-(5-fluoro-2-methoxypyridin-4-yl)propan-1-one] | 1.2 | 19 |
| COc1cc([C@@H](C)C(=O)N2CC[C@H](Nc3ccc(-c4nc5ccccn5n4)c(C)n3)C2)c(Cl)cn1 [Example 18, (2R)-2-(5-chloro-2-methoxypyridin-4-yl)-1-[(3S)-3-{[6-methyl-5-([1,2,4]triazolo[1,5-a]pyridin-2-yl)pyridin-2-yl]amino}pyrrolidin-1-yl]propan-1-one] | 0.51 | 2.1 |
| Cc1nc(N[C@H]2CCN(C(=O)Cc3cc(F)c(F)c(F)c3)C2)ccc1-c1cn(C)c(C(F)F)n1 [Example 28, 1-[(3S)-3-({5-[2-(difluoromethyl)-1-methyl-1H-imidazol-4-yl]-6-methylpyridin-2-yl}amino)pyrrolidin-1-yl]-2-(3,4,5-trifluorophenyl)ethan-1-one] | 0.25 | 1.3 |
